Article PMC9030254, “Target Hopping from Protein Kinases to PXR: Identification of Small-Molecule Protein Kinase Inhibitors as Selective Modulators of Pregnane X Receptor from TüKIC Library” (Cells, 2022)

How the values were obtained:
Assay in all cases: Kinase profiling
Format in all cases: biochemical
[1] = biological target: T1, CDK16/CycY (Homo sapiens, UniProt Q00536)
T1 construct: purchased ProQinase (Freiburg, Germany)
Protocol: (§1) The analysis was performed by ProQinase (Freiburg, Germany).

[2] = biological target: T2, CDK17/p35NCK (Homo sapiens, UniProt Q00537)
T2 construct: purchased ProQinase (Freiburg, Germany)
Protocol: as §1

[3] = biological target: T3, CDK4/CycD3 (Homo sapiens, UniProt P11802)
T3 construct: purchased ProQinase (Freiburg, Germany)
T3 sequence (P11802 whole entry): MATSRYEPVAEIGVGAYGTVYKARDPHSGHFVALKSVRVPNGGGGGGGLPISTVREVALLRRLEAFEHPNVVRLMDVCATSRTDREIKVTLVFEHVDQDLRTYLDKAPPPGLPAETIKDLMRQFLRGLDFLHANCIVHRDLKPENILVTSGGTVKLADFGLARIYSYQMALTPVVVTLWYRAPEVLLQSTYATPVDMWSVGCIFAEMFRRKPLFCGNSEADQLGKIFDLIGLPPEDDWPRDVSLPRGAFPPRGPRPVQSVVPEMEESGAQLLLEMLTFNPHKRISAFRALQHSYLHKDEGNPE
T3 sequence (P30281 whole entry partner): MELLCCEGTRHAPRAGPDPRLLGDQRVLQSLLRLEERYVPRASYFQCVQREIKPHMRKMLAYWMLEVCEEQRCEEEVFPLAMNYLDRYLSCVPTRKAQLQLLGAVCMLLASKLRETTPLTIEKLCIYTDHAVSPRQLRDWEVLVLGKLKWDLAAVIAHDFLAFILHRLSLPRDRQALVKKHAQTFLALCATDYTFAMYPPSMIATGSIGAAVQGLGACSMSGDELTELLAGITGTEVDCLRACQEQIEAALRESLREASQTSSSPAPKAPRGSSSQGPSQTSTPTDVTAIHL
Protocol: as §1

[4] = biological target: T4, CK1gamma1 (Homo sapiens, UniProt Q9HCP0)
T4 construct: purchased ProQinase (Freiburg, Germany)
T4 sequence (Q9HCP0 whole entry): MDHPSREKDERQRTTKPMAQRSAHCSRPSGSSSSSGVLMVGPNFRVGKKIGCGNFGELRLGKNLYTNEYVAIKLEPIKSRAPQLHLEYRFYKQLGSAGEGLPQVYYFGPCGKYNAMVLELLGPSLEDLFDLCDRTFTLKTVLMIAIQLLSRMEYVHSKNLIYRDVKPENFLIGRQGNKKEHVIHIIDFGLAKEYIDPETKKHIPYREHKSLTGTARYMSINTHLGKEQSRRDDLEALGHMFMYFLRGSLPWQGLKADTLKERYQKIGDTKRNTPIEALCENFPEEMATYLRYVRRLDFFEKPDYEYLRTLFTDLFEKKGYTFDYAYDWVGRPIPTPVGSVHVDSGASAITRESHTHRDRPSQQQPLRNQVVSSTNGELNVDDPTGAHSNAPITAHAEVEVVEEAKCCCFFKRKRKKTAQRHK
Protocol: as §1

[5] = biological target: T5, IKKbeta (Homo sapiens, UniProt O14920)
T5 construct: purchased ProQinase (Freiburg, Germany)
T5 sequence (O14920 1-756): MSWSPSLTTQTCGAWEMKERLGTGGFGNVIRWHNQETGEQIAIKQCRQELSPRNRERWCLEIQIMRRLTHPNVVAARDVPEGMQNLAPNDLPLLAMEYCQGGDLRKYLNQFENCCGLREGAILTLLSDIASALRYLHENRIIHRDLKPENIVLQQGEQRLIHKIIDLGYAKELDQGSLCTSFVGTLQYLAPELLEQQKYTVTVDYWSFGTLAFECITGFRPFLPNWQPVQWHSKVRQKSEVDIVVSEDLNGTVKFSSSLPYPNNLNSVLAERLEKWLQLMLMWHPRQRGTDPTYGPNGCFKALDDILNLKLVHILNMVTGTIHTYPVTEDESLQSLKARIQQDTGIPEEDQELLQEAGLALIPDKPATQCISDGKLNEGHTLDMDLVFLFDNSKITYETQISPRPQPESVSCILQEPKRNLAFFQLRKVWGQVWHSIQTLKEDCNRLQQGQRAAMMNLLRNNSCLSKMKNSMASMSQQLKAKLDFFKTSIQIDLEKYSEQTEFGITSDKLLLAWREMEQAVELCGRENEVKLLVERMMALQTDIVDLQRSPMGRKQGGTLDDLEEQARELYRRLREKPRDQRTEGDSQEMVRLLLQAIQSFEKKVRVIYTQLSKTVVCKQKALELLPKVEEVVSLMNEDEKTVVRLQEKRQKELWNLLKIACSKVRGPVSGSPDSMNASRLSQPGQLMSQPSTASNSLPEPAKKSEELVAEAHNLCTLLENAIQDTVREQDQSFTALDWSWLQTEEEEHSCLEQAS
Protocol: as §1

[6] = biological target: T6, LIMK1 (Homo sapiens, UniProt P53667)
T6 construct: purchased ProQinase (Freiburg, Germany)
T6 sequence (P53667 whole entry): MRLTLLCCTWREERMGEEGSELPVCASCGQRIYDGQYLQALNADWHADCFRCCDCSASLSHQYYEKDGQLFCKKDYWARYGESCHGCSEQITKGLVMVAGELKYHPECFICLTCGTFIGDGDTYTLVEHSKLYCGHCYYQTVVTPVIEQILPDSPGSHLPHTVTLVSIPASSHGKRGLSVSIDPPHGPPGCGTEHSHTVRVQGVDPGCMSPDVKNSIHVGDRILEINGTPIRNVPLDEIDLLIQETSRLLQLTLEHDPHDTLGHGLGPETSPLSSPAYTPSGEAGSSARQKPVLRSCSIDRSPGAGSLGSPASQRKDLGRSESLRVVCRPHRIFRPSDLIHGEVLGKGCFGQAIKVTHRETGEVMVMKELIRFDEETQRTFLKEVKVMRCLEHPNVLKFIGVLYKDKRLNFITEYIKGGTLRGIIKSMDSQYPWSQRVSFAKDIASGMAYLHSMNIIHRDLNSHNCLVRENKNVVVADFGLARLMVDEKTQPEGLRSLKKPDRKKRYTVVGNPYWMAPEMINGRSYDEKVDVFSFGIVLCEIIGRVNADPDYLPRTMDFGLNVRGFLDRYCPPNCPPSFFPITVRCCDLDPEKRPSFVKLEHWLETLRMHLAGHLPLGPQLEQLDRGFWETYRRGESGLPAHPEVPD
Protocol: as §1

[7] = biological target: T7, MAP4K2 (Homo sapiens, UniProt Q12851)
T7 construct: purchased ProQinase (Freiburg, Germany)
T7 sequence (Q12851 1-820): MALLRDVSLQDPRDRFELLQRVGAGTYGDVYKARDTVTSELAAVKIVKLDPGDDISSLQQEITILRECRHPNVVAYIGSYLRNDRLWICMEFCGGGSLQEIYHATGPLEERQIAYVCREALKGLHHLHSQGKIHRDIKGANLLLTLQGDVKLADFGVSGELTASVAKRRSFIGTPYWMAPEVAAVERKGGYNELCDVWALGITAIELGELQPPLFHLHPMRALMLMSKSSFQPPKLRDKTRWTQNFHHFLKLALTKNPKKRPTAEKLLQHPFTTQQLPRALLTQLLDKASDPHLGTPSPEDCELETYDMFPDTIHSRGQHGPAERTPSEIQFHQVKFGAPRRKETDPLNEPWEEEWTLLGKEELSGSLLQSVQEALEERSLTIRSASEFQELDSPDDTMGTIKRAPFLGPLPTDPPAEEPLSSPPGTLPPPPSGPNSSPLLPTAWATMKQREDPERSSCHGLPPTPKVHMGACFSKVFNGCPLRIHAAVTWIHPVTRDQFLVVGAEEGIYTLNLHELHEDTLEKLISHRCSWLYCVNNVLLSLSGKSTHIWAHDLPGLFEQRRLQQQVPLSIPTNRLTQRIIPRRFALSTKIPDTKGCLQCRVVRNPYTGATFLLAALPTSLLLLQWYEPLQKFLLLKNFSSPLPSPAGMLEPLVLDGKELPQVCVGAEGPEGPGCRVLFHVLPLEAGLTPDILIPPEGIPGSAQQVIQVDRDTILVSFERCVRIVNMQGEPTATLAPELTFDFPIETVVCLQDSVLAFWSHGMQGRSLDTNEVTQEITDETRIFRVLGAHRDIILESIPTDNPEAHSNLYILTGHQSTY
Protocol: as §1

[8] = biological target: T8, MAP4K5 (Homo sapiens, UniProt Q9Y4K4)
T8 construct: purchased ProQinase (Freiburg, Germany)
T8 sequence (Q9Y4K4 whole entry): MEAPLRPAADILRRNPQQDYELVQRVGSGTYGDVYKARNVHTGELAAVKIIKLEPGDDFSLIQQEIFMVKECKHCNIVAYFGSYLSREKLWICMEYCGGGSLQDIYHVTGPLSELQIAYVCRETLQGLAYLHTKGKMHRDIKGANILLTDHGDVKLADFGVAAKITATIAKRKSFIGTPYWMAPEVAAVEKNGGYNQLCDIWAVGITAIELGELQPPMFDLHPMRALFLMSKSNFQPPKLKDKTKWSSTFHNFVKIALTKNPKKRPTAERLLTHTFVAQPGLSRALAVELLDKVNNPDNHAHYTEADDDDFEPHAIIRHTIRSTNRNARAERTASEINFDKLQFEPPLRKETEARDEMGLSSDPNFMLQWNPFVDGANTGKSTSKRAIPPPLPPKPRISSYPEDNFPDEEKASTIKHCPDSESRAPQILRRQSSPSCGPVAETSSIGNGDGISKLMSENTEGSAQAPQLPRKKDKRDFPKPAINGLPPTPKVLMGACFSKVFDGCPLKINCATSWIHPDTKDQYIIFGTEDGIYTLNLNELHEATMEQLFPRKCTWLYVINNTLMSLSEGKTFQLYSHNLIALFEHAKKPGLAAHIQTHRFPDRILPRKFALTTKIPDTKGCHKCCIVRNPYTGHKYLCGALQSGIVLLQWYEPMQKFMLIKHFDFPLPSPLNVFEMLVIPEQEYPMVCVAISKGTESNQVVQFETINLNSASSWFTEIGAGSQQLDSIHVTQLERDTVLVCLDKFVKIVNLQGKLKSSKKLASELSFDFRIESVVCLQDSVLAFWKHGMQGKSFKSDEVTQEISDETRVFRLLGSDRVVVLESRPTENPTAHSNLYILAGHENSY
Protocol: as §1

[9] = biological target: T9, NEK7 (Homo sapiens, UniProt Q8TDX7)
T9 construct: purchased ProQinase (Freiburg, Germany)
T9 sequence (Q8TDX7 whole entry): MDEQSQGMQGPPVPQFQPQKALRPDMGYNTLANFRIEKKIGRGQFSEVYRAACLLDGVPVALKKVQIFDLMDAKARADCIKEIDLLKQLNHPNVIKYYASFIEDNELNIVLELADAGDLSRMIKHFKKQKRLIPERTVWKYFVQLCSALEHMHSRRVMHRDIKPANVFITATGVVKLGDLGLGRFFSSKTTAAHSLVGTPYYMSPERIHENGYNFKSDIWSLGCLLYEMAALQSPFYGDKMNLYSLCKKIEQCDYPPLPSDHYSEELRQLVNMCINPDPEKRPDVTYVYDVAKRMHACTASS
Protocol: as §1

[10] = biological target: T10, S6K (Homo sapiens, UniProt P23443)
T10 construct: purchased ProQinase (Freiburg, Germany)
T10 sequence (P23443 whole entry): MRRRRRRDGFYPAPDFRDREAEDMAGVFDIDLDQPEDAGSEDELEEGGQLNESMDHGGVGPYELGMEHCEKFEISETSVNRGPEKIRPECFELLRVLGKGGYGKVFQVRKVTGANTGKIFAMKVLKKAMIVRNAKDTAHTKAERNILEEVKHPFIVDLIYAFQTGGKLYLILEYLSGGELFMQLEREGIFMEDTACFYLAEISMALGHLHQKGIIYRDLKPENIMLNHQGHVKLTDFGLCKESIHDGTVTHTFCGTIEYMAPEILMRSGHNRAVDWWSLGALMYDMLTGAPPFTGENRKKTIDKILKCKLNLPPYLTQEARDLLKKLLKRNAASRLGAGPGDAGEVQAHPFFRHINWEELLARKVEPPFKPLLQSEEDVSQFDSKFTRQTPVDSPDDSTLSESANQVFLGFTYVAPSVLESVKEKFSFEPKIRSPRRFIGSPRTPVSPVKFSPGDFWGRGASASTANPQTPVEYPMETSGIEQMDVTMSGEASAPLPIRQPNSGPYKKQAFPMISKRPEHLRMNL
Protocol: as §1

[11] = biological target: T11, VRK1 (Homo sapiens, UniProt Q99986)
T11 construct: purchased ProQinase (Freiburg, Germany)
T11 sequence (Q99986 1-396): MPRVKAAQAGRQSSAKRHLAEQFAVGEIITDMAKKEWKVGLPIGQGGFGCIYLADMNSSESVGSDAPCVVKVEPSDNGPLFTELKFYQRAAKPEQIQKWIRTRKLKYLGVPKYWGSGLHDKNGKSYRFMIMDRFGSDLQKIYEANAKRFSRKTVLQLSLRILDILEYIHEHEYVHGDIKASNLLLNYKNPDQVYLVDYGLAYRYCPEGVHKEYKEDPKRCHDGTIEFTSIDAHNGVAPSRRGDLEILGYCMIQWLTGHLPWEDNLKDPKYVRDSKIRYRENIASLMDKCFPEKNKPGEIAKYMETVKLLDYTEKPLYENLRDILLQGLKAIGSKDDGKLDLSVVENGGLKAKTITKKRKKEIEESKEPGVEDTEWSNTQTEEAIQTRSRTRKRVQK
Protocol: as §1

T1 sequence (Q00536 whole entry): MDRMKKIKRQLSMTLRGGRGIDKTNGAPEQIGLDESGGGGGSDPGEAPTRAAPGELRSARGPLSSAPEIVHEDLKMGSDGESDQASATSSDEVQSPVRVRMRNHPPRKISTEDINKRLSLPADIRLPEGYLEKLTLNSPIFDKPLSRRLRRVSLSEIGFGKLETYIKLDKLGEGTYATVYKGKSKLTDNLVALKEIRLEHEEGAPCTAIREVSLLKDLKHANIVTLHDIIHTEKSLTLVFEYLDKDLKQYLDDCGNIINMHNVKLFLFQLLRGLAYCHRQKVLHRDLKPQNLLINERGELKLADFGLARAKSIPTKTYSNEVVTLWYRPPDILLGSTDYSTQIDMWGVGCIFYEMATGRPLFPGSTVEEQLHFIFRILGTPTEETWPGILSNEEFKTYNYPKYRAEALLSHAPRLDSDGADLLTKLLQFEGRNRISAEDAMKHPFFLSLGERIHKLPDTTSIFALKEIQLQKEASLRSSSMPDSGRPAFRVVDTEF
T1 sequence (Q8ND76 whole entry partner): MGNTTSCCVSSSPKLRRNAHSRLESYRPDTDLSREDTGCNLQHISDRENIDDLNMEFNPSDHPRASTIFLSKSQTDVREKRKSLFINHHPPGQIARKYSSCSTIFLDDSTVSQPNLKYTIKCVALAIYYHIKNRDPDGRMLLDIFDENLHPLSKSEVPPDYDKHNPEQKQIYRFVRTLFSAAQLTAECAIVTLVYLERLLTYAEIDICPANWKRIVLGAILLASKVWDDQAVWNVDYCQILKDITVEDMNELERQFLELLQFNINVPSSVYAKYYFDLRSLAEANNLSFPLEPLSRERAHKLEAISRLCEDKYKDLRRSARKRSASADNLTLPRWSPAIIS

Row | SMILES | Residual activity ([1]; 1.0E-05 M) | Residual activity ([1]; 1.0E-06 M) | Residual activity ([2]; 1.0E-05 M) | Residual activity ([2]; 1.0E-06 M) | Residual activity ([3]; 1.0E-05 M) | Residual activity ([3]; 1.0E-06 M) | Residual activity ([4]; 1.0E-05 M) | Residual activity ([4]; 1.0E-06 M) | Residual activity ([5]; 1.0E-05 M) | Residual activity ([5]; 1.0E-06 M) | Residual activity ([6]; 1.0E-05 M) | Residual activity ([6]; 1.0E-06 M) | Residual activity ([7]; 1.0E-05 M) | Residual activity ([7]; 1.0E-06 M) | Residual activity ([8]; 1.0E-05 M) | Residual activity ([8]; 1.0E-06 M) | Residual activity ([9]; 1.0E-05 M) | Residual activity ([9]; 1.0E-06 M) | Residual activity ([10]; 1.0E-05 M) | Residual activity ([10]; 1.0E-06 M) | other results
1 | O=C(Cc1ccccc1)Nc1ccc(F)c(Nc2ccc3c(c2)CCCCC3=O)c1 [Compound 100] | 101 % of control | 99 % of control | 84 % of control | 102 % of control | 89 % of control | 93 % of control | 115 % of control | 111 % of control | 99 % of control | 110 % of control | 87 % of control | 102 % of control | 71 % of control | 94 % of control | 94 % of control | 98 % of control | 118 % of control | 109 % of control | 92 % of control | 102 % of control | Residual activity ([11]; 1.0E-05 M): 103 % of control; Residual activity ([11]; 1.0E-06 M): 102 % of control
2 | O=C(Nc1ccc(F)c(Nc2ccc3c(c2)CCCCC3=O)c1)c1cccc(F)c1 [Compound 109] | 100 % of control | 96 % of control | 92 % of control | 109 % of control | 89 % of control | 94 % of control | 57 % of control | 86 % of control | 79 % of control | 84 % of control | 96 % of control | 89 % of control | 93 % of control | 95 % of control | 92 % of control | 92 % of control | 121 % of control | 108 % of control | 91 % of control | 88 % of control | Residual activity ([11]; 1.0E-05 M): 130 % of control; Residual activity ([11]; 1.0E-06 M): 100 % of control
